Laboratory results taken from the supplement of paper PMC10307832.

Columns and labels:
Assay in all cases: relative viability (nuclei count vs DMSO), 5 days (fraction); higher = more cells survive
[1] = compound: C1CSC2=C(C(=O)N1)SC3=C2C=C(C=C3)O [kb NB 142-70] + CC(C)C[C@H](NC(=O)[C@H](Cc1ccccc1)NC(=O)c1cnccn1)B(O)O [Bortezomib] (partner 0.002 µM)
How it was run: (§1)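 Lung cancer cell lines were seeded in 1536-well plates and dosed by pin tool the next day, with either a single drug or a fixed anchor-drug dose combined with five library-drug doses (not always all listed) spaced in √10 steps. Five days later, one step fixed the cells and stained their nuclei (final 0.05% Triton X-100, 1% formaldehyde, 1 ug/ml Hoechst), and nuclei were counted on 4× images. Relative viability is the nuclei count in treated wells divided by the count in vehicle wells, and each value is the median of duplicate plates.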

[2] = compound: NCC(=O)Nc1ccc(-n2nc(C(F)(F)F)cc2-c2ccc3c(ccc4ccccc43)c2)cc1 + NC(=O)Nc1cc(-c2cccc(F)c2)sc1C(=O)N[C@H]1CCCNC1 [AZD7762] (partner 0.2 µM)
How it was run: as §1

[3] = compound: NCC(=O)Nc1ccc(-n2nc(C(F)(F)F)cc2-c2ccc3c(ccc4ccccc43)c2)cc1 + CS(=O)(=O)N1CCN(Cc2cc3nc(-c4cccc5[nH]ncc45)nc(N4CCOCC4)c3s2)CC1 [Pictilisib] (partner 1 µM)
How it was run: as §1

[4] = compound: C1CSC2=C(C(=O)N1)SC3=C2C=C(C=C3)O [kb NB 142-70] + CCNC(=O)c1noc(-c2cc(C(C)C)c(O)cc2O)c1-c1ccc(CN2CCOCC2)cc1 [Luminespib] (partner 0.01 µM)
How it was run: as §1

[5] = compound: C1CSC2=C(C(=O)N1)SC3=C2C=C(C=C3)O [kb NB 142-70] + O=C(c1cc(Cc2n[nH]c(=O)c3ccccc23)ccc1F)N1CCN(C(=O)C2CC2)CC1 [Olaparib] (partner 8 µM)
How it was run: as §1

Cell Line	relative viability ([1]; first compound 0.1 µM)	relative viability ([1]; first compound 1 µM)	relative viability ([1]; first compound 3.162 µM)	relative viability ([2]; first compound 0.02 µM)	relative viability ([2]; first compound 0.06325 µM)	relative viability ([2]; first compound 0.2 µM)	relative viability ([2]; first compound 0.6325 µM)	relative viability ([2]; first compound 2 µM)	relative viability ([3]; first compound 0.02 µM)	relative viability ([3]; first compound 0.06325 µM)	relative viability ([3]; first compound 0.2 µM)	relative viability ([3]; first compound 0.6325 µM)	relative viability ([3]; first compound 2 µM)	relative viability ([4]; first compound 0.1 µM)	relative viability ([4]; first compound 1 µM)	relative viability ([4]; first compound 3.162 µM)	relative viability ([5]; first compound 0.1 µM)	relative viability ([5]; first compound 1 µM)	relative viability ([5]; first compound 3.162 µM)
HCC-15	0.972	1.1	1.1	1.28	1.13	1.21	1.36	1.06	0.705	0.773	0.8	0.747	0.743	0.195	0.605	0.393	0.722	0.748	0.752
ABC-1	0.373	0.278	0.239	0.811	0.899	–	0.758	0.866	0.808	0.81	–	0.745	0.563	0.536	0.487	0.336	0.712	0.746	0.427
LCLC-103H	1.17	1.09	1.07	0.796	0.79	0.752	0.812	0.818	0.606	0.61	0.571	0.648	0.673	0.956	0.997	0.903	0.751	0.749	0.847
NCI-H441	0.323	0.793	0.307	1.12	1.1	1.32	1.06	1.12	0.469	0.441	0.469	0.366	0.575	0.397	0.353	0.244	0.631	0.533	0.22
EPLC-272H	0.926	1.06	0.72	0.362	0.208	0.196	0.167	0.149	0.28	0.378	0.285	0.344	0.319	0.361	0.216	0.157	0.761	0.481	0.121
